Patent US20140342379A1, “Means and Methods for Assessing Gonadal Toxicity” (BASF SE, priority 2011, published 2014)
“And” between values parts separate entries of the source, which are not always exact repeats. Equal values may be shown once. Marks after values point to notes of the source that are not given here. One block for each molecule: values may come before it.

Test system: male rats
Experiment: 28-day repeated dose study, plasma metabolite profiling (GC-MS, LC-MS), male rats
Format: in vivo, rat
From the text: Drinking water was also offered ad libitum.

SMILES: COCCO [2-Methoxyethanol]
3-Hydroxybutyrate, plasma, treatment ratio versus control (day 7): 0.45*
3-O-Methylsphingosine (d18:1), plasma, treatment ratio versus control (day 7): 0.53*
5-Oxoproline, plasma, treatment ratio versus control (day 7): 0.76*
Campesterol, plasma, treatment ratio versus control (day 7): 0.58*
Ceramide (d18:1,C24:0), plasma, treatment ratio versus control (day 7): 0.75*
Ceramide (d18:1,C24:1), plasma, treatment ratio versus control (day 7): 0.82
Cholesterol, plasma, treatment ratio versus control (day 7): 0.58*
Coenzyme Q9, plasma, treatment ratio versus control (day 7): 0.57*
Coenzyme Q10, plasma, treatment ratio versus control (day 7): 0.7*
Dodecanol, plasma, treatment ratio versus control (day 7): 0.8
Glutamine, plasma, treatment ratio versus control (day 7): 0.68*
Histidine, plasma, treatment ratio versus control (day 7): 1.13
Isopalmitic acid (C16:0), plasma, treatment ratio versus control (day 7): 1.03
Lignoceric acid (C24:0), plasma, treatment ratio versus control (day 7): 0.61*
Linoleic acid (C18:cis[9,12]2), plasma, treatment ratio versus control (day 7): 1.07
Lysine, plasma, treatment ratio versus control (day 7): 1.22*
Myristic acid (C14:0), plasma, treatment ratio versus control (day 7): 0.87
Palmitic acid (C16:0), plasma, treatment ratio versus control (day 7): 0.92
Palmitoleic acid (C16:cis[9]1), plasma, treatment ratio versus control (day 7): 0.71*
Sphingomyelin (d18:1,C16:0), plasma, treatment ratio versus control (day 7): 0.84*
Sphingomyelin (d18:1,C24:0), plasma, treatment ratio versus control (day 7): 0.68*
Stearic acid (C18:0), plasma, treatment ratio versus control (day 7): 0.8*
Threonine, plasma, treatment ratio versus control (day 7): 1.72*
alpha-Tocopherol, plasma, treatment ratio versus control (day 7): 0.78
erythro-Sphingosine, plasma, treatment ratio versus control (day 7): 0.57*
3-Hydroxybutyrate, plasma, treatment ratio versus control (day 14): 0.24*
3-O-Methylsphingosine (d18:1), plasma, treatment ratio versus control (day 14): 0.67*
5-Oxoproline, plasma, treatment ratio versus control (day 14): 0.67*
Ceramide (d18:1,C24:0), plasma, treatment ratio versus control (day 14): 0.7*
Ceramide (d18:1,C24:1), plasma, treatment ratio versus control (day 14): 0.62*
Cholesterol, plasma, treatment ratio versus control (day 14): 0.61*
Coenzyme Q9, plasma, treatment ratio versus control (day 14): 0.58*
Coenzyme Q10, plasma, treatment ratio versus control (day 14): 0.49*
Dodecanol, plasma, treatment ratio versus control (day 14): 0.77*
Glutamine, plasma, treatment ratio versus control (day 14): 0.71
Histidine, plasma, treatment ratio versus control (day 14): 1.4*
Isopalmitic acid (C16:0), plasma, treatment ratio versus control (day 14): 0.43*
Lignoceric acid (C24:0), plasma, treatment ratio versus control (day 14): 0.46*
Linoleic acid (C18:cis[9,12]2), plasma, treatment ratio versus control (day 14): 0.77*
Myristic acid (C14:0), plasma, treatment ratio versus control (day 14): 0.57*
Palmitic acid (C16:0), plasma, treatment ratio versus control (day 14): 0.75*
Palmitoleic acid (C16:cis[9]1), plasma, treatment ratio versus control (day 14): 0.39*
Sphingomyelin (d18:1,C16:0), plasma, treatment ratio versus control (day 14): 0.88*
Sphingomyelin (d18:1,C24:0), plasma, treatment ratio versus control (day 14): 0.56*
Stearic acid (C18:0), plasma, treatment ratio versus control (day 14): 0.84*
Threonine, plasma, treatment ratio versus control (day 14): 2.93*
alpha-Tocopherol, plasma, treatment ratio versus control (day 14): 0.76*
erythro-Sphingosine, plasma, treatment ratio versus control (day 14): 0.67*

3-Hydroxybutyrate, plasma, treatment ratio versus control (day 7): 0.24* and 0.21*
3-O-Methylsphingosine (d18:1), plasma, treatment ratio versus control (day 7): 0.22
5-O-Methylsphingosine (d18:1), plasma, treatment ratio versus control (day 7): 0.19
5-Oxoproline, plasma, treatment ratio versus control (day 7): 0.65*
Arginine, plasma, treatment ratio versus control (day 7): 1.37*
Campesterol, plasma, treatment ratio versus control (day 7): 0.24*
Ceramide (d18:1,C24:0), plasma, treatment ratio versus control (day 7): 0.59*
Ceramide (d18:1,C24:1), plasma, treatment ratio versus control (day 7): 0.47*
Cholesterol, plasma, treatment ratio versus control (day 7): 0.3
Choline plasmalogen No 03, plasma, treatment ratio versus control (day 7): 0.51*
Coenzyme Q9, plasma, treatment ratio versus control (day 7): 0.21*
Coenzyme Q10, plasma, treatment ratio versus control (day 7): 0.33*
Glutamate, plasma, treatment ratio versus control (day 7): 0.72
Glutamine, plasma, treatment ratio versus control (day 7): 0.65*
Histidine, plasma, treatment ratio versus control (day 7): 1.21*
Homovanillic acid (HVA), plasma, treatment ratio versus control (day 7): 0.21*
Isopalmitic acid (C16:0), plasma, treatment ratio versus control (day 7): 0.46*
Lignoceric acid (C24:0), plasma, treatment ratio versus control (day 7): 0.36
Linoleic acid (C18:cis[9,12]2), plasma, treatment ratio versus control (day 7): 0.44*
Lysine, plasma, treatment ratio versus control (day 7): 6.14*
Myristic acid (C14:0), plasma, treatment ratio versus control (day 7): 0.54
Oleic acid (C18:cis[9]1), plasma, treatment ratio versus control (day 7): 0.87
Palmitic acid (C16:0), plasma, treatment ratio versus control (day 7): 0.42*
Palmitoleic acid (C16:cis[9]1), plasma, treatment ratio versus control (day 7): 0.66
Phosphatidylcholine (C16:0,C18:2), plasma, treatment ratio versus control (day 7): 0.89*
Phosphatidylcholine (C18:1,C18:2), plasma, treatment ratio versus control (day 7): 0.74*
Serine, plasma, treatment ratio versus control (day 7): 1.36*
Sphingomyelin (d18:1,C16:0), plasma, treatment ratio versus control (day 7): 0.84*
Sphingomyelin (d18:1,C24:0), plasma, treatment ratio versus control (day 7): 0.52*
Sphingomyelin (d18:2,C16:0), plasma, treatment ratio versus control (day 7): 0.58*
Stearic acid (C18:0), plasma, treatment ratio versus control (day 7): 0.34*
TAG (C16:0,C16:1), plasma, treatment ratio versus control (day 7): 0.47
Threonine, plasma, treatment ratio versus control (day 7): 1.46*
alpha-Tocopherol, plasma, treatment ratio versus control (day 7): 0.52*
beta-Sitosterol, plasma, treatment ratio versus control (day 7): 0.43*
erythro-Sphingosine, plasma, treatment ratio versus control (day 7): 0.21
threo-Sphingosine, plasma, treatment ratio versus control (day 7): 0.25
Lysophosphatidylcholine (C20:4), plasma, treatment ratio versus control (day 7, first listing in Table 3): 0.87*
Lysophosphatidylcholine (C20:4), plasma, treatment ratio versus control (day 7, second listing in Table 3): 0.67*
3-Hydroxybutyrate, plasma, treatment ratio versus control (day 14): 0.29* and 0.2*
3-O-Methylsphingosine (d18:1), plasma, treatment ratio versus control (day 14): 0.45*
5-O-Methylsphingosine (d18:1), plasma, treatment ratio versus control (day 14): 0.48*
Arginine, plasma, treatment ratio versus control (day 14): 1.59*
Campesterol, plasma, treatment ratio versus control (day 14): 0.43*
Ceramide (d18:1,C24:0), plasma, treatment ratio versus control (day 14): 0.59*
Ceramide (d18:1,C24:1), plasma, treatment ratio versus control (day 14): 0.38*
Cholesterol, plasma, treatment ratio versus control (day 14): 0.47*
Choline plasmalogen No 03, plasma, treatment ratio versus control (day 14): 0.66*
Coenzyme Q9, plasma, treatment ratio versus control (day 14): 0.27*
Coenzyme Q10, plasma, treatment ratio versus control (day 14): 0.24*
Dodecanol, plasma, treatment ratio versus control (day 14): 0.75*
Glutamate, plasma, treatment ratio versus control (day 14): 0.93
Glutamine, plasma, treatment ratio versus control (day 14): 0.8
Histidine, plasma, treatment ratio versus control (day 14): 1.37*
Homovanillic acid (HVA), plasma, treatment ratio versus control (day 14): 0.47*
Isopalmitic acid (C16:0), plasma, treatment ratio versus control (day 14): 0.49*
Lignoceric acid (C24:0), plasma, treatment ratio versus control (day 14): 0.52*
Linoleic acid (C18:cis[9,12]2), plasma, treatment ratio versus control (day 14): 0.57*
Lysine, plasma, treatment ratio versus control (day 14): 6.55*
Myristic acid (C14:0), plasma, treatment ratio versus control (day 14): 0.59*
Oleic acid (C18:cis[9]1), plasma, treatment ratio versus control (day 14): 1.01
Palmitic acid (C16:0), plasma, treatment ratio versus control (day 14): 0.56*
Palmitoleic acid (C16:cis[9]1), plasma, treatment ratio versus control (day 14): 0.55*
Phosphatidylcholine (C16:0,C18:2), plasma, treatment ratio versus control (day 14): 0.93*
Phosphatidylcholine (C18:1,C18:2), plasma, treatment ratio versus control (day 14): 0.79*
Serine, plasma, treatment ratio versus control (day 14): 1.54*
Sphingomyelin (d18:1,C16:0), plasma, treatment ratio versus control (day 14): 0.88*
Sphingomyelin (d18:1,C24:0), plasma, treatment ratio versus control (day 14): 0.62*
Sphingomyelin (d18:2,C16:0), plasma, treatment ratio versus control (day 14): 0.53*
Stearic acid (C18:0), plasma, treatment ratio versus control (day 14): 0.51*
TAG (C16:0,C16:1), plasma, treatment ratio versus control (day 14): 0.67*
Threonine, plasma, treatment ratio versus control (day 14): 1.74*
alpha-Tocopherol, plasma, treatment ratio versus control (day 14): 0.56*
beta-Sitosterol, plasma, treatment ratio versus control (day 14): 0.57*
erythro-Sphingosine, plasma, treatment ratio versus control (day 14): 0.51*
threo-Sphingosine, plasma, treatment ratio versus control (day 14): 0.5*
Lysophosphatidylcholine (C20:4), plasma, treatment ratio versus control (day 14, first listing in Table 3): 0.95*
Lysophosphatidylcholine (C20:4), plasma, treatment ratio versus control (day 14, second listing in Table 3): 0.61*
3-Hydroxybutyrate, plasma, treatment ratio versus control (day 28): 0.52* and 0.49*
3-O-Methylsphingosine (d18:1), plasma, treatment ratio versus control (day 28): 0.48*
5-O-Methylsphingosine (d18:1), plasma, treatment ratio versus control (day 28): 0.48*
5-Oxoproline, plasma, treatment ratio versus control (day 28): 0.74*
Arginine, plasma, treatment ratio versus control (day 28): 1.76*
Campesterol, plasma, treatment ratio versus control (day 28): 0.35*
Ceramide (d18:1,C24:0), plasma, treatment ratio versus control (day 28): 0.44*
Ceramide (d18:1,C24:1), plasma, treatment ratio versus control (day 28): 0.38*
Cholesterol, plasma, treatment ratio versus control (day 28): 0.49*
Choline plasmalogen No 03, plasma, treatment ratio versus control (day 28): 0.6*
Coenzyme Q9, plasma, treatment ratio versus control (day 28): 0.31*
Coenzyme Q10, plasma, treatment ratio versus control (day 28): 0.37*
Glutamate, plasma, treatment ratio versus control (day 28): 0.82*
Glutamine, plasma, treatment ratio versus control (day 28): 0.81*
Histidine, plasma, treatment ratio versus control (day 28): 1.56*
Homovanillic acid (HVA), plasma, treatment ratio versus control (day 28): 0.26*
Isopalmitic acid (C16:0), plasma, treatment ratio versus control (day 28): 0.34*
Lignoceric acid (C24:0), plasma, treatment ratio versus control (day 28): 0.6*
Linoleic acid (C18:cis[9,12]2), plasma, treatment ratio versus control (day 28): 0.38*
Lysine, plasma, treatment ratio versus control (day 28): 8.13*
Myristic acid (C14:0), plasma, treatment ratio versus control (day 28): 0.53*
Oleic acid (C18:cis[9]1), plasma, treatment ratio versus control (day 28): 0.81*
Palmitic acid (C16:0), plasma, treatment ratio versus control (day 28): 0.48*
Palmitoleic acid (C16:cis[9]1), plasma, treatment ratio versus control (day 28): 0.37*
Phosphatidylcholine (C16:0,C18:2), plasma, treatment ratio versus control (day 28): 0.92*
Phosphatidylcholine (C18:1,C18:2), plasma, treatment ratio versus control (day 28): 0.83*
Serine, plasma, treatment ratio versus control (day 28): 1.7*
Sphingomyelin (d18:1,C16:0), plasma, treatment ratio versus control (day 28): 0.79*
Sphingomyelin (d18:1,C24:0), plasma, treatment ratio versus control (day 28): 0.64*
Sphingomyelin (d18:2,C16:0), plasma, treatment ratio versus control (day 28): 0.55*
Stearic acid (C18:0), plasma, treatment ratio versus control (day 28): 0.55*
TAG (C16:0,C16:1), plasma, treatment ratio versus control (day 28): 0.66*
Threonine, plasma, treatment ratio versus control (day 28): 2.15*
beta-Sitosterol, plasma, treatment ratio versus control (day 28): 0.55*
erythro-Sphingosine, plasma, treatment ratio versus control (day 28): 0.51*
threo-Sphingosine, plasma, treatment ratio versus control (day 28): 0.51*
Lysophosphatidylcholine (C20:4), plasma, treatment ratio versus control (day 28, first listing in Table 3): 0.94*
Lysophosphatidylcholine (C20:4), plasma, treatment ratio versus control (day 28, second listing in Table 3): 0.5*
SMILES: CC(C=O)Cc1ccc(C(C)(C)C)cc1 (centres unmarked) [Lysmeral, 2-Methyl-3(4-tert.-butylphenyl)-propanal]
